# In patent US20230346952A1, “CANNABINOID GLYCOSIDE PRODRUGS AND METHODS OF SYNTHESIS” (priority 2015, published 2023):
# What was measured:
# [1] = Rat plasma toxicokinetics post VB302 administration at 1,000 mg/kg; settings: both, Sprague Dawley, po, 1000 mg/kg, AUC in plasma, post VB302 oral gavage 1,000 mg/kg, 1, 2, 6, 24 hours, label = analyte in plasma
# [2] = Antimicrobial activity observed in phytocannabinoid glycosylation reaction mixtures; settings: large-scale glycosylation reaction mixtures
# [3] = target: safety screen panel of human pharmacological targets (Homo sapiens, UniProt P21554); experiment: biochemical; settings: read-out: percent inhibition: CB1 (h) (agonist radioligand)
# [4] = system: Lallzyme Beta™ (Lallemand); experiment: In vitro digestion with Lallzyme Beta; settings: 5 mg/ml Lallzyme Beta, 20 mM citrate buffer pH 4.0, 44° C.; HPLC
# [5] = Rat plasma toxicokinetics post VB311 administration at 1,000 mg/kg; settings: for relative amount in plasma: label = analyte
# [6] = target: T1, human cannabinoid receptor type 1 (CB1R) (Homo sapiens, UniProt P21554); format: binding; settings: 10 µM test compound; 2.0 nanomolar [3H] SR141716A; human recombinant Chem-1 cells; 90 minutes at 37 C
# T1 construct: expressed in transfected cells; host or cells: Chem-1 cells
# glycoside hydrolases = experiment: In vitro digestion screening with commercially available glycoside hydrolases (Table K); settings: Enzyme 1 of Table K
# [7] = system: Vinotaste Pro (Novozymes); experiment: In vitro digestion with Vinotaste Pro; settings: same digestion conditions as for Lallzyme Beta; HPLC
# [8] = 24 hours post VB311 oral gavage
# T1 sequence (P21554 whole entry): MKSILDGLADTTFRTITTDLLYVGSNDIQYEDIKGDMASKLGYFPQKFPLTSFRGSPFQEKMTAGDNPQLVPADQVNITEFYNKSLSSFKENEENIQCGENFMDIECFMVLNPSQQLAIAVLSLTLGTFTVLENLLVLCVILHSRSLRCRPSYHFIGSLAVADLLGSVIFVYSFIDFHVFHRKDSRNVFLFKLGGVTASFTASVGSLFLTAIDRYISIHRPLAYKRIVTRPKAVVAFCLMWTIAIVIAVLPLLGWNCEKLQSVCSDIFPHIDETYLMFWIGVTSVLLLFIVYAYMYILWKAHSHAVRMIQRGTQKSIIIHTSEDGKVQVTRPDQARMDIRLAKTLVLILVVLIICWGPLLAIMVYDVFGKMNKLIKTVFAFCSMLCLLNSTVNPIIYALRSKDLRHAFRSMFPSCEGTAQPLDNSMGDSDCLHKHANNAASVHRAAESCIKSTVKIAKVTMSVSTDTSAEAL
# safety screen panel of human pharmacological targets, sequence (P21554 whole entry): as above
Structure (SMILES),AUC [1] [ng·h/mL],antimicrobial activity [2],inhibition at 10 µM [3] [%],digestion by Lallzyme Beta (extent / products) [4],relative amount in plasma ([5]; 1 hour post VB311 oral gavage),relative amount in plasma ([5]; 2 hours post VB311 oral gavage),relative amount in plasma ([5]; 6 hours post VB311 oral gavage),"relative amount in plasma [5, 8]",plasma concentration of VB302 relative to VB311 ([5]; after VB311 administration) [x],percent displacement of [3H] SR141716A at human CB1R [6] [%],digestion by glycoside hydrolase (activity / product) (glycoside hydrolases),digestion by Vinotaste Pro (extent / products) [7]
"CCCCCc1cc(O)c2c(c1)OC(C)(C)[C@@H]1CCC(C)=C[C@@H]21 [VB301, Δ9-Terahydrocannabinol, reference compound]",72,noticeable antimicrobial activity,–,–,–,–,–,–,–,–,–,–
"CCCCCc1cc(O[C@@H]2O[C@H](CO)[C@@H](O)[C@H](O)[C@H]2O)c2c(c1)OC(C)(C)[C@@H]1CCC(C)=C[C@@H]21 [VB302, Δ9THC-1-O-glucopyranoside]",167000,–,-3,unable to hydrolyze VB302 back to THC,Minor quantities,Minor quantities,predominant THC-glycoside present in the plasma,relative abundance was greatly increased,2.2,-3,–,–
CCCCCc1cc(O[C@@H]2O[C@H](CO[C@@H]3O[C@H](CO)[C@@H](O)[C@H](O)[C@H]3O)[C@@H](O[C@@H]3O[C@H](CO)[C@@H](O)[C@H](O)[C@H]3O)[C@H](O)[C@H]2O)c2c(c1)OC(C)(C)[C@@H]1CCC(C)=C[C@@H]21 [VB311],–,–,3,very low activity,relative majority of glycosides present in the plasma,majority of glycosides present in the plasma,extensively modified,almost completely digested,–,3,digests VB311 to V310,capable of hydrolyzing
